Source: a melting point compilation (Tetko et al.; mined from patent text by program, amines drawn as free bases though some values may be those of a salt)

melting point [°C]	Compound
109 to 110	CCCc1c(C(=O)OC)[nH]c2c(C)ccc(Cl)c12
183 to 184	CCOC1CC(n2cc(C(F)(F)F)c(=O)[nH]c2=O)OC1CO (stereo unspecified)
168 to 169	COc1ccc(C2CCN(C(N)=O)CC2)cc1CC1CCCC1
119 to 120	OCC(O)Cc1ccccc1OCc1ccc2ccccc2c1 (stereo unspecified)
239 to 240	O=c1cc(-c2ccncc2)nc2n1CC(F)(F)CN2
113 to 114	COc1cc(O)c(C(=O)CCc2ccc3occc3c2)cc1C(O)C1OC(C(=O)C(C)C(=O)O)C(O)C(O)C1O (stereo unspecified)
95 to 104	CCc1nc2c(C)cc(C)nc2n1Cc1ccc(-c2ccccc2S(=O)(=O)Nc2onc(C)c2C)c(CN2CCC(C)(C)C2=O)c1
105 to 106	O=C(O)Cc1cn(-c2ccccc2)nc1OCc1ccccc1
111 to 113	Cc1c(-c2cccnc2)n(CCCCCC(=O)O)c2ccccc12
156	CC(=O)OCC1OC(Oc2ncn(Cc3ccc([N+](=O)[O-])cc3)c2C(N)=O)C(OC(C)=O)C1OC(C)=O (stereo unspecified)
128 to 130	CC(=O)Oc1cc(C)ccc1C1CCN(CCCCNC(=O)c2ccc(-c3ccc(C#N)cc3)cc2)CC1
210 to 212	COc1cc(Cc2cnc(N)nc2N)ccc1N
137 to 138	O=C(Nc1noc2ccccc12)N1CCN(C(=O)OCc2ccccc2)CC1
222 to 224	CC(=O)Nc1c(-c2cc(Cl)ccc2O)c2cc(C(F)(F)F)ccc2[nH]c1=O
138	O=C(NCCCO)C1=C(C(=O)Nc2ccc(Cl)cc2F)CCCC1
283 to 286	CCc1cc(C(=O)c2ccccc2Cl)c(-n2c(CNC(=O)c3cc4ccccc4[nH]3)nnc2C23CC4CC(CC(C4)C2)C3)s1
81 to 83	CN(C)c1c([N+](=O)[O-])c(C(C)(C)C)nn1-c1c(Cl)cc(C(F)(F)F)cc1Cl
200 to 204	Cc1nnc2ncc(-c3ccccc3F)nn12
63 to 64	Cc1oc(-c2ccccc2)nc1CCC#N
156 to 158	O=C(O)CCC(=O)CC(=O)c1cccnc1
88 to 89	CC(C)(C)OC(=O)N1CCCN(c2ccc(F)cc2)CC1
112	CC(=O)OC1CSC(Oc2ccccc2C(C)=O)C(OC(C)=O)C1OC(C)=O (stereo unspecified)
84 to 88	CN1c2cscc2C(=O)N(CCN2CCCCC2)c2ccccc21

melting point [°C]	Compound
96 to 99	O=C(OC(c1ccccc1)c1ccccc1)C12CCC1CN(Cc1ccccc1)C2 (stereo unspecified)
115 to 119	CC(C)(C)c1cc(C(=S)OCc2ccccc2)cc(C(C)(C)C)c1O
146 to 147	CC(=O)Nc1ccc(C(C)=O)cn1
177 to 178	CC(C)(C)c1ccc(-c2ccc(F)cc2)n1CC[C@H]1C[C@H](O)CC(=O)O1 (relative stereo)
140 to 141	COC(=O)c1sc2nc(C)c(Cl)c(=O)n2c1C
234	CNC(=O)c1ccc(NCC(=O)O)cc1
229 to 230	Cc1c(C(=O)O)cnn1-c1cc(Cl)cc(Cl)c1
180 to 182	Cc1cc(Cl)cc(NC(=O)Cc2ccc(OC3(C(=O)O)CCCC3C)cc2)c1 (stereo unspecified)
179 to 182	CCCCC(=O)Nc1ccc(C(F)(F)F)c(-n2nc(CCCC)n(Cc3ccc(-c4ccccc4S(=O)(=O)NC(=O)OC(C)(C)C)cc3F)c2=O)c1
75 to 77	COCCNC(NC(=O)c1cccnc1)C(Cl)(Cl)Cl (stereo unspecified)
145	CSC(=NC#N)NS(=O)(=O)c1cc(Cl)ccc1Cl
124 to 126	CCCCc1cc(N)n2nccc2n1
58 to 60	CCc1cn(-c2nccs2)c2c1C(=O)CC(C)(C)C2
188	Cc1cccc(-c2nc(N)sc2-c2ccc3ncccc3n2)n1
110 to 112	Nc1nc(Cl)cc(NCCCCO)n1
205	COC(=O)c1ccc(Cl)c(C2(O)C(=O)N(Cc3ccc(Cl)cc3OC)c3ccc(Cl)cc32)c1 (stereo unspecified)
242 to 243	CCc1nc2c(N)nc3ccccc3c2n1OC(C)C
80.5 to 81	Cn1ncc2c1-c1cc(Cl)ccc1OC2
87 to 89	CN1C(=O)C2(C(=O)N(Cc3ccccn3)c3ccccc32)c2cc3c(cc21)OCCO3 (stereo unspecified)
118	COc1ccc2oc(=O)c(-c3ccccc3)c(OCCN3CCOCC3)c2c1
199 to 201	CNc1nc(-c2cccc(-n3cccc3)c2)c2cc(OC)c(OC)cc2n1
159 to 162	O=C(c1cccc(O)c1)C(O)c1cccc(O)c1 (stereo unspecified)
211 to 217	O=c1[nH]c(=S)nc2n1C(c1ccc(F)cc1)CO2 (stereo unspecified)

melting point [°C]	Compound
178 to 179	CCOC(=O)C(C)(C#N)c1cccc(S(=O)(=O)c2ccccc2Cl)c1OC (stereo unspecified)
115 to 117	OCC1COC(Cc2nc[nH]n2)(c2ccc(Cl)cc2)O1 (stereo unspecified)
146 to 147	O=C1CCCc2cc(OCc3cncnc3)ccc21
155 to 156	COc1ccc(-c2coc3ccc(-c4nnc(SCc5cccc(Cl)c5)o4)cc23)cc1
132 to 133	CC1C(=O)C2CC(=O)N2C1C(=O)OC(c1ccccc1)c1ccccc1 (stereo unspecified)
159 to 161	Cc1cn2cccc(OCc3c(Cl)ccc(S(=O)(=O)N4CCC[C@H]4C(=O)N4CCN(C(=O)c5ccc(C=NN)cc5)CC4)c3Cl)c2n1
84 to 85	CCCCCCCCCCCCCCCCOCC(O)CN1CCC(C)CC1 (stereo unspecified)
152	COc1c(C2CCN(CCCCNC(=O)c3cc(-c4ccc(C#N)cc4)nn3CCO)CC2)ccc2c1CCCC2
128	O=[N+]([O-])c1ccccc1/C=C/c1ncon1
150	Cc1c(Cl)ccc(OC(C)C(=O)O)c1Cl (stereo unspecified)
94 to 97	CCOC(=O)c1cnn2c1nc(NC(C)CC)c1cnc3c(cnn3CC)c12 (stereo unspecified)
145 to 146	O=C(O)CCCCCCCn1cnc(-c2ccccc2Cl)c1-c1ccccc1Cl
118 to 120	COc1ccc(-c2cnc(SC(F)(F)C(F)F)nc2-c2ccc(OC)cc2)cc1
149 to 155	COc1ccc(-c2cnc3cc4cnn(Cc5ccccc5)c4cc3n2)cc1F
142 to 144	CCOC(=O)NC1Cc2ccccc2C1Nc1ccc(OC)cc1CO (stereo unspecified)
186 to 188	CC(C)(C)c1cc(C=C2SCN(CC#N)C2=O)cc(C(C)(C)C)c1O
199	COC(=O)c1c(C(C)C)c(S(=O)(=O)c2ccc(O)cc2)c2ccccn12
101 to 103	CCCC(C)S(=O)(=O)Nc1ccc(C(=O)CN2CCN(c3ccncc3)CC2)cc1 (stereo unspecified)
253 to 259	Cc1cccc(C)c1Oc1cc2c(cc1Cl)C=C(C(=O)O)C(C(F)(F)F)O2 (stereo unspecified)
257 to 258	CC(C)(C)C(NC(=O)c1ccc(Cl)cc1)Nc1c(Nc2cccnc2)c(=O)c1=O (stereo unspecified)
149 to 151	O=C(CO)NC1CCC(CC2CCC(NC(=O)CO)CC2)CC1 (stereo unspecified)
170 to 171	O=c1[nH]nc(Cc2ccc([N+](=O)[O-])cc2)o1

Compound	melting point [°C]
CC(C)(C)C(=O)NC(=O)N1CC1C#N (stereo unspecified)	136 to 138
Clc1ccc2c(c1)C(c1ccccc1)=NCc1nnc(C(Cl)Cl)n1-2	193 to 196
C=CCOC(=O)c1ncn2c1[C@@H]1CCCN1C(=O)c1c(Cl)cccc1-2	122 to 123
